Reference: US20180036330A1, “NUCLEOTIDE PHOSPHORAMIDATE FORMULATION” (priority 2015, published 2018)
In brackets after ≈: the same amount, converted by molar mass. Read-outs that look alike come from different tables or passages of the source.

Columns and labels:
[1] = tested on: Huh-Luc cell line; assay: Cell toxicity in the Huh-Luc cell line; type: cell-based
[2] = Solubility of Compound 1 in ethanol; type: physicochemical; conditions: for solubility: 99% ethanol, organic solvent or mixture, heated to 50-60° C., transparent syrup, read-out: solubility in ethanol: final concentration fully dissolved
Procedure: 100.43 mg of Compound 1 was weighed into a glass vial. 37 μl of 99% ethanol was added so that final concentration was 2700 mg/ml. The formulation was heated to 50-60° C. during gentle agitation until the drug substance was fully dissolved. A transparent syrup was obtained and the solution remained transparent after cooling and storage at room temperature for more than 48 hours with no visible crystals.
200.26 mg of Compound 1 was weighed into a glass vial. 67 μl of 99% ethanol was added so that final concentration was 3000 mg/ml. The formulation was heated to 50-60° C. during gentle agitation until the drug substance was fully dissolved. A transparent syrup was obtained.

[3] = Basket dissolution test USP method 711 of Compound 1 in hard gelatin capsule (Example 3); type: physicochemical; conditions: for Mean % Compound 1 released: n = 2
Procedure: Dissolution test. 350 mg of Compound 1 was filled into a hard gelatin capsule. A basket dissolution test was performed according to USP method 711, at 100 rpm at 37° C., 900 g media, 5 ml sampling after 20, 45, 90 minutes. Samples were analysed by RP-UPLC. […] The lump was very sticky when wet but dried to a hard lump in air.

[4] = tested on: HCV replicon (NS3-NS5B regions of HCV type 1 b) in Huh-7 luc/neo cells; assay: HCV replicon assay (Huh-Luc, luciferase); type: cell-based; conditions: Hepatitis C virus, Huh-7, 72 h, three days incubation, luciferase activity, n>10
Source text: The compositions of the invention may be examined for activity in the inhibition of HCV RNA replication in a cellular assay aimed at identifying compounds that inhibit a HCV functional cellular replicating cell line, also known as HCV replicons. A suitable cellular assay is based on a bicistronic expression construct, as described by Lohmann et al. (1999), Science vol. 285 pp. 110-113 with modifications described by Krieger et al. (2001), Journal of Virology 75: 4614-4624, in a multi-target screening strategy.
The assay utilizes the stably transfected cell line Huh-7 luc/neo (hereafter referred to as Huh-Luc). […]
The replicon cells are plated in 384 well plates in the presence of the test and control compounds which are added in various concentrations. Following an incubation of three days, HCV replication is measured by assaying luciferase activity (using standard luciferase assay substrates and reagents and a Perkin Elmer ViewLux™ ultraHTS microplate imager). […] The inhibitory activity of a compound on luciferase activity is monitored on the Huh-Luc cells, enabling a dose-response curve for each test compound. […]

[5] = solvent not given, context ethanol, cited from earlier work

| SMILES | cell toxicity [1] [µM] | time solution remained transparent with no visible crystals ([2]; 2700 mg/ml in 99% ethanol, after cooling, storage at room temperature) | appearance after cooling and storage at room temperature ([2]; 3000 mg/ml in 99% ethanol) | solubility ([2]; 100.43 mg in 37 μl 99% ethanol) [mg/mL] | solubility ([2]; 200.26 mg in 67 μl 99% ethanol) [mg/mL] | Mean % Compound 1 released ([3]; 0.1M HCl, 20 min, 350 mg in hard gelatin capsule, 37° C., 100 rpm) [%] | Mean % Compound 1 released ([3]; 0.1M HCl, 45 min, 350 mg in hard gelatin capsule) [%] | Mean % Compound 1 released ([3]; 0.1M HCl, 90 min, 350 mg in hard gelatin capsule) [%] | observation of capsule during dissolution test ([3]; 350 mg in hard gelatin capsule, 90 min) | Mean % Compound 1 released ([3]; FaSSIF, 20 min, 350 mg in hard gelatin capsule) [%] | Mean % Compound 1 released ([3]; FaSSIF, 45 min, 350 mg in hard gelatin capsule) [%] | Mean % Compound 1 released ([3]; FaSSIF, 90 min, 350 mg in hard gelatin capsule) [%] | solubility of the lump in 70% EtOH ([3]; lump formed from capsule, 70% EtOH) | EC50 [4] [nM] | published solubility ([5]; Cayman Chemical item no 15402 and Apex BT Catalog no. A3738) [mg/mL] | published solubility ([5]; Selleckchem Catalog no S2794) [mg/mL] |
| --- | --- | --- | --- | --- | --- | --- | --- | --- | --- | --- | --- | --- | --- | --- | --- | --- |
| CC(C)OC(=O)[C@H](C)N[P@](=O)(OC[C@H]1O[C@@H](n2ccc(=O)[nH]c2=O)[C@@](F)(Cl)[C@@H]1O)Oc1ccccc1 [Compound 1, (S)-Isopropyl 2-(((S)-(((2R,3R,4S,5R)-4-chloro-5-(2,4-dioxo-3,4-dihydropyrimidin-1(2H)-yl)-4-fluoro-3-hydroxytetrahydrofuran-2-yl)methoxy)(phenoxy)phosphoryl)amino)propanoate] | > 50 | more than 48 hours | solidified to a slightly opaque semisolid with no visible crystals | 2700 (≈ 4910 mM) | 3000 (≈ 5460 mM) | 2 | 3 | 5 | water insoluble lump that did not dissolve or change much during 90 min | 2 | 5 | 8 | surprisingly soluble | 55 |  |  |
| CC(C)OC(=O)[C@H](C)N[P@](=O)(OC[C@H]1O[C@@H](n2ccc(=O)[nH]c2=O)[C@](C)(F)[C@@H]1O)Oc1ccccc1 [sofosbuvir] |  |  |  |  |  |  |  |  |  |  |  |  |  |  | 25 | 100 |
